# From PMC5407064 (Cell reports, 2017)
# Residue numbers refer to the chain shown, from its start.
# Legend:
# [1] = biological target: T1, SIRT1 K444E (Homo sapiens, UniProt Q96EB6, K444E); test: steady-state kinetics; type: biochemical
# T1 sequence (Q96EB6 2-747 K444E): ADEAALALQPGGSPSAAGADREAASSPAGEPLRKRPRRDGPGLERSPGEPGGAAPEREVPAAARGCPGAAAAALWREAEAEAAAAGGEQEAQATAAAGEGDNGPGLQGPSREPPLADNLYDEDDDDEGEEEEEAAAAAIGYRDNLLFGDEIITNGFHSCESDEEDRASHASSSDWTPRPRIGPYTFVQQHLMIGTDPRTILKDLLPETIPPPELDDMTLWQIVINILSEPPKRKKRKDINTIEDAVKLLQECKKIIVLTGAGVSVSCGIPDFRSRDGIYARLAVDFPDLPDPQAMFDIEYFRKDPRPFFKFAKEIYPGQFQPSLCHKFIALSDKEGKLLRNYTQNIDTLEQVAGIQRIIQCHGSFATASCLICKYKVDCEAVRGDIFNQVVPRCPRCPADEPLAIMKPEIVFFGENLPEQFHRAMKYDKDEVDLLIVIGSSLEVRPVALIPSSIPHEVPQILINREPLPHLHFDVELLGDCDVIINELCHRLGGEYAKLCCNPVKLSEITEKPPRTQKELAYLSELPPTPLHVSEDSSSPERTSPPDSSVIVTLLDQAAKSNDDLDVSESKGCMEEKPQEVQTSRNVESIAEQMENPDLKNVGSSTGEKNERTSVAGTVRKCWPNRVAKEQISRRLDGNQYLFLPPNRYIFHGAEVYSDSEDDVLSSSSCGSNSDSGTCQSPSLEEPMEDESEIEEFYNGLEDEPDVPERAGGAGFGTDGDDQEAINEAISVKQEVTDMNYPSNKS
# [2] = biological target: T2, SIRT1 (Homo sapiens, UniProt Q96EB6); test: SIRT1 activation assay; type: biochemical
# T2 sequence (Q96EB6 2-747): T1 sequence (Q96EB6 2-747 K444E) with E443K
Structure (SMILES),"steady-state kinetics (KM, kcat), FDL SIRT1 assay with varied NAD+ [1]",SIRT1 activation assay (Fig. S4C); activation peak concentration [2]
NC(=O)c1ccc[n+]([C@@H]2O[C@H](COP(=O)([O-])OP(=O)(O)OC[C@H]3O[C@@H](n4cnc5c(N)ncnc54)[C@H](O)[C@@H]3O)[C@@H](O)[C@H]2O)c1 [NAD^+],K444E SIRT1 is catalytically more active than WT (higher kcat) and has a significantly lower KM for both substrates,
Oc1ccc(/C=C/c2cc(O)cc(O)c2)cc1 [resveratrol],,1 mM
